Data from paper PMC3774728, “Identification of the Plant Compound Geraniin as a Novel Hsp90 Inhibitor” (PLoS ONE, 2013).

Assays:
[1] = biological target: T1, Hsp90α chaperone activity (Homo sapiens, UniProt P07900); assay: Citrate synthase thermal-induced aggregation assay (chaperone activity); assay type: biochemical; conditions: 0.075 µM CS, 0.075 µM Hsp90α, 0.3 µM ATP, four-fold molar excess (0.3 µM) compound, 43°C
T1 construct: purchased Assay Designs (Ann Arbor, MI, USA)
Experimental: Chaperone activity was evaluated by monitoring the thermal−induced aggregation of citrate synthase (CS) (0.075 µM), as reported elsewhere, in the absence or presence of a stoichiometric amount of Hsp90α and 0.3 µM ATP, and with or without a four−fold molar excess of each testing compound. Aggregation was initiated by unfolding CS incubating the protein in 40 mM HEPES–KOH, pH 7.5 at 43°C. Aggregation was monitored by measuring light scattering at right angles with the Perkin Elmer LS 55 fluorimeter in stirred and thermostatted quartz cells. Both the emission and excitation wavelengths were set at 500 nm, while the band–pass was 2 nm. Kinetics traces reported are the averages of two separate measurements.
Figure 3 Inhibition of Hsp90α activity. ATPase activity of the chaperone was evaluated in the presence of different concentrations of geraniin, 17-AAG and HA (A). Data are reported as the residual ATPase activity (%) compared to that observed for an untreated sample. Data are the mean of three independent experiments performed in triplicate and were analyzed by t test (HA vs testing compounds): The error bar represents the standard deviation of nine measurements, while * indicates significance at P<0.01. Aggregation kinetics of citrate synthase (CS) at 43°C determined by light scattering (B). […]

recombinant Hsp90α = biological target: T2, recombinant Hsp90α (Homo sapiens, UniProt P07900); assay: Limited proteolysis-mass spectrometry of Hsp90α/geraniin complex; conditions: trypsin or chymotrypsin, 5:1 molar excess of geraniin, 37°C
T2 construct: purchased Assay Designs (Ann Arbor, MI, USA)
Experimental: Limited proteolysis experiments were performed on recombinant Hsp90α at 37°C, PBS 0.1% DMSO, using trypsin or chymotrypsin as proteolytic agents; 30 µL of a 3 µM Hsp90α solution were used for each experiment. Binary complex Hsp90α/geraniin was formed by incubating the protein with a 5∶1 molar excess of geraniin at 37°C for 15 min prior to proteolytic enzyme addition. Both Hsp90 and Hsp90/geraniin complex were digested using a 1∶100 (w/w) enzyme to substrate ratio. The extent of the reactions was monitored on a time−course basis by sampling the incubation mixture after 5, 15, and 30 min of digestion. Samples were analyzed by MALDITOF/MS using a MALDI micro MX (Waters). Mass data were elaborated using the Masslynx software (Waters). Preferential hydrolysis sites on Hsp90α under different conditions were identified on the basis of the fragments released during enzymatic digestion.
In an effort to identify the Hsp90α region involved in geraniin binding, a limited proteolysis−mass spectrometry−based strategy was used for the structural analysis of the Hsp90α/geraniin complex. This approach is based on the evidence that exposed, weakly structured, and flexible regions of a protein can be recognized by a proteolytic enzyme, [30]. […]

HeLa cells = assay: MTT cell viability, HeLa; assay type: cell-based, human; conditions: Homo sapiens, 24 h
Experimental: To ensure logarithmic growth, cells were subcultured every two days. As control cells, human peripheral blood mononuclear cells (PBMC) were isolated from buffy coats of healthy donors (kindly provided by the Blood Center of the Hospital of Battipaglia, Salerno, Italy) by using standard Ficoll−Hypaque gradients. […] Proliferation of PBMC was induced by phytohemagglutinin (PHA) (10 µg mL^−1). Tumor and PBMC cells were treated with different concentrations of geraniin or 17-AAG to evaluate their cytotoxic effects. Stock solutions of geraniin (50 mM in DMSO) and 17-AAG (10 mM in DMSO) were stored a −20°C in the dark and diluted just before addition to the sterile culture medium. In all the experiments, the final concentration of DMSO was 0.10% (v/v).
Jurkat (2×10^4/well) and HeLa (5000/well) cells were seeded in triplicate in 96 well−plates and incubated for 24 h in the absence or presence of different concentrations of geraniin (between 0,5 µM to 50 µM) or 17-AAG (between 0,5 nM to 10 µM).
The number of viable cells was determined by using a [3–4,5-dimethyldiazol-2-yl]-2,5-diphenyl tetrazolium bromide (MTT, Sigma-Aldrich) conversion assay, according to the method described by Mosmann. […] The absorbance was measured with a microplate reader (Titertek multiskan MCC7340, LabSystems, Vienna, VA, USA) equipped with a 620 nm filter. […]

O=C1O[C@H]2[C@@H]3OC(=O)c4cc(O)c(O)c(O)c4-c4c(cc(O)c(O)c4O)C(=O)OC[C@H]2O[C@@H](OC(=O)c2cc(O)c(O)c(O)c2)[C@@H]3OC(=O)c2cc(O)c(O)c3c2[C@@H]2C1=CC(=O)[C@](O)(O3)C2(O)O [Compound 54, geraniin]
effect on citrate synthase aggregation kinetics in the presence of Hsp90α [1]: the curve slope clearly increased
Hsp90α region involved in binding (recombinant Hsp90α): overall protection of the N−terminal region from proteolysis
IC50 (HeLa cells): 5.1 ± 0.2 µM
